Experimental data from patent publication US4450269A, “Mono-5-substituted-3-chloro-4H-1,2,6-thiadiazin-4-one antifungal agents” (FMC Corporation, priority 1980, dated 1984).

Assays:
Assay in all cases: Spore germination test
Type in all cases: cell-based
[1] = system: Uromyces phaseoli; conditions: UP, 48 hours
Experimental: (§1) The test chemical was dissolved or suspended in acetone in an amount such that 0.8 ml of the resulting suspension or solution, mixed with 40 ml water agar produced a water agar solution containing 40, 10, 2.5 and 1 ppm of test chemical. The resulting agar solution, at 50° C., was then divided equally between two sterile petri dishes, each having four separated quadrants, and allowed to solidify. […] quadrants of each dish were flooded with 0.1 ml of a spore suspension in sterile water. Spores of two pathogens, Erysiphe polygoni and Uromyes phaseoli, from infected plant leaves, were brushed on the remaining two quadrants. The tests were then incubated 48 hours, at 24° C.
(§2) Readings were then taken and the percentage of germinated spores calculated. From this percentage, a spore germination rating was assigned as follows: […]

[2] = system: Botrytis cinerea; conditions: BC, 48 hours
Experimental: as §1, §2

[3] = system: Alternaria solani; conditions: AS, 48 hours
Experimental: as §1, §2

SMILES | Spore Germination Rating ([1]; 1.0 ppm) | Spore Germination Rating ([1]; 2.5 ppm) | Spore Germination Rating ([1]; 10 ppm) | Spore Germination Rating ([1]; 40 ppm) | Spore Germination Rating ([2]; 1.0 ppm) | Spore Germination Rating ([2]; 2.5 ppm) | Spore Germination Rating ([2]; 10 ppm) | Spore Germination Rating ([2]; 40 ppm) | Spore Germination Rating ([3]; 1.0 ppm) | Spore Germination Rating ([3]; 2.5 ppm) | Spore Germination Rating ([3]; 10 ppm) | Spore Germination Rating ([3]; 40 ppm)
N#Cc1ccc(Oc2nsnc(Cl)c2=O)cc1 [Compound 10, 3-chloro-5-(4-cyanophenoxy)-4H--1,2,6-thiadiazin-4-one] | 0 (0-10) | 0 (0-10) | 0 (0-10) | 0 (0-10) | 2 (40-60) | 0 (0-10) | 0 (0-10) | 0 (0-10) | 1 (10-40) | 1 (10-40) | 1 (10-40) | 1 (10-40)
O=c1c(Cl)nsnc1Oc1ccc(F)cc1 [Compound 11, 3-chloro-5-(4-fluorophenoxy)-4H--1,2,6-thiadiazin-4-one] | 4 (80-100) | 0 (0-10) | 0 (0-10) | 0 (0-10) | 4 (80-100) | 1 (10-40) | 0 (0-10) | 0 (0-10) | 4 (80-100) | 0 (0-10) | 0 (0-10) | 0 (0-10)
O=c1c(Cl)nsnc1Oc1ccc(Cl)cc1 [Compound 12, 3-chloro-5-(4-chlorophenoxy)-4H--1,2,6-thiadiazin-4-one] | 1 (10-40) | 1 (10-40) | 0 (0-10) | 0 (0-10) | 0 (0-10) | 2 (40-60) | 0 (0-10) | 0 (0-10) | 3 (60-80) | 1 (10-40) | 1 (10-40) | 0 (0-10)
O=c1c(Cl)nsnc1Oc1cccc(Cl)c1 [Compound 13, 3-chloro-5-(3-chlorophenoxy)-4H--1,2,6-thiadiazin-4-one] | 0 (0-10) | 0 (0-10) | 0 (0-10) | 0 (0-10) | 4 (80-100) | 4 (80-100) | 0 (0-10) | 0 (0-10) | 2 (40-60) | 0 (0-10) | 0 (0-10) | 0 (0-10)
O=c1c(Cl)nsnc1Oc1ccccc1Cl [Compound 14, 3-chloro-5-(2-chlorophenoxy)-4H--1,2,6-thiadiazin-4-one] | 0 (0-10) | 0 (0-10) | 0 (0-10) | 0 (0-10) | 3 (60-80) | 0 (0-10) | 0 (0-10) | 0 (0-10) | 3 (60-80) | 2 (40-60) | 0 (0-10) | 0 (0-10)
O=c1c(Cl)nsnc1Oc1ccc(Br)cc1 [Compound 15, 3-chloro-5-(4-bromophenoxy)-4H--1,2,6-thiadiazin-4-one] | 1 (10-40) | 0 (0-10) | 0 (0-10) | 0 (0-10) | 4 (80-100) | 1 (10-40) | 0 (0-10) | 0 (0-10) | 4 (80-100) | 1 (10-40) | 0 (0-10) | 0 (0-10)
O=c1c(Cl)nsnc1Oc1ccc(Cl)c(Cl)c1 [Compound 16, 3-chloro-5-(3,4-dichlorophenoxy)-4H--1,2,6-thiadiazin-4-one] | 1 (10-40) | 0 (0-10) | 0 (0-10) | 0 (0-10) | 4 (80-100) | 1 (10-40) | 0 (0-10) | 1 (10-40) | 1 (10-40) | 0 (0-10) | 0 (0-10) | 0 (0-10)
O=c1c(Cl)nsnc1Oc1ccc(Cl)cc1Cl [Compound 17, 3-chloro-5-(2,4-dichlorophenoxy)-4H--1,2,6-thiadiazin-4-one] | 0 (0-10) | 0 (0-10) | 0 (0-10) | 0 (0-10) | 4 (80-100) | 0 (0-10) | 0 (0-10) | 0 (0-10) | 2 (40-60) | 1 (10-40) | 0 (0-10) | 0 (0-10)
O=c1c(Cl)nsnc1Oc1c(Cl)cccc1Cl [Compound 18, 3-chloro-5-(2,6-dichlorophenoxy)-4H--1,2,6-thiadiazin-4-one] | 0 (0-10) | 0 (0-10) | 0 (0-10) | 0 (0-10) | 4 (80-100) | 1 (10-40) | 0 (0-10) | 0 (0-10) | 3 (60-80) | 2 (40-60) | 1 (10-40) | 0 (0-10)
O=c1c(Cl)nsnc1Oc1cccc(Cl)c1Cl [Compound 19, 3-chloro-5-(2,3-dichlorophenoxy)-4H--1,2,6-thiadiazin-4-one] | 0 (0-10) | 0 (0-10) | 0 (0-10) | 0 (0-10) | 4 (80-100) | 1 (10-40) | 0 (0-10) | 0 (0-10) | 3 (60-80) | 3 (60-80) | 0 (0-10) | 0 (0-10)
O=c1c(Cl)nsnc1Oc1cc(Cl)cc(Cl)c1 [Compound 20, 3-chloro-5-(3,5-dichlorophenoxy)-4H--1,2,6-thiadiazin-4-one] | 0 (0-10) | 0 (0-10) | 0 (0-10) | 0 (0-10) | 4 (80-100) | 0 (0-10) | 0 (0-10) | 0 (0-10) | 2 (40-60) | 0 (0-10) | 0 (0-10) | 0 (0-10)
Cc1cccc(Oc2nsnc(Cl)c2=O)c1 [Compound 21, 3-chloro-5-(3-methylphenoxy)-4H--1,2,6-thiadiazin-4-one] | 4 (80-100) | 2 (40-60) | 0 (0-10) | 0 (0-10) | 4 (80-100) | 3 (60-80) | 0 (0-10) | 0 (0-10) | 3 (60-80) | 1 (10-40) | 0 (0-10) | 0 (0-10)
Cc1ccccc1Oc1nsnc(Cl)c1=O [Compound 22, 3-chloro-5-(2-methylphenoxy)-4H--1,2,6-thiadiazin-4-one] | 4 (80-100) | 2 (40-60) | 1 (10-40) | 0 (0-10) | 2 (40-60) | 0 (0-10) | 0 (0-10) | 0 (0-10) | 3 (60-80) | 0 (0-10) | 0 (0-10) | 0 (0-10)
